*1 amine or outer side, *2 acyl side, *3 side chain or, on linkers, in order; H or OH if unused. Where a SMILES comes first, the peptide text is derived from it. Bridges are numbered along the chain shown (N, C = ends). [ ]: non-standard residue; d: D form. X1 = O=C(CC1(S[*:2])CCCCC1)[*:1]
Assays:
[1] = target: vasopressin receptors (V2 -receptors) (Sus scrofa, UniProt P32307); assay: biochemical
Procedure: Antagonistic activity toward the natural anti-diuretic hormone (anti ADH activity) is determined, in vitro, in the medullary tissue of hog or human kidneys and, in vivo, in the hydropenic rat.
These values represent total and non specific binding, respectively.

[2] = target: vasopressin stimulated adenylate cyclase; assay: vasopressin stimulated adenylate cyclase activity, kidney medullary membrane; format: biochemical; settings: Swine; antagonism of vasopressin stimulated adenylate cyclase
Procedure: In the test procedure for assay of adenylate cyclase activity, the amount of ^32 P/cAMP formed in the absence of medullary membrane is determined (blank). The blank value is subtracted from all experimental data. The compound is tested for its effect on basal adenylate cyclase activity and/or on vasopressin stimulated activity. Each determination is carried out in triplicate. The Ka value is derived from a Lineweaver-Burkeplot. Rel. Vmax =(Vmax drug/Vmax vasopressin) x 100. Ki =I/[Ka'/Ka)-1] where I is the concentration of the antagonist and Ka' and Ka are the concentrations of vasopressin required to give half maximal activity of adenylate cyclase in the presence and absence of antagonist, respectively.

hydropenic rat = assay: Hydropenic Rat Screen (anti-ADH activity in vivo); settings: intraperitoneal, dose required to lower urine osmolality to 300 m-Osmoles/kg
Procedure: The assay for anti-ADH activity in vivo is the hydropenic rat protocol described below:
Food and water are removed from male rats approximately 18 hours prior to testing. Animals are housed 4 per metabolism cage. At 0 hour, the test compound is administered intraperitoneally to the test group and an equivalent volume of vehicle is administered to both control groups (fasted and non-fasted). Urine volume and osmolality are measured every hour for 4 hours. Test values are recorded as ml of urine excreted (cumulative), mEg/rat electrolyte excreted, mg/rat urea excreted, and osmolality in milli-Osmoles/kg H2 O. A […] is used to determine significance. ED300 is defined as the dose of compound (μg/kg) required to lower urine osmolality to 300 m-Osmoles/kg.

Sequence of vasopressin receptors (V2 -receptors) (P32307 whole entry): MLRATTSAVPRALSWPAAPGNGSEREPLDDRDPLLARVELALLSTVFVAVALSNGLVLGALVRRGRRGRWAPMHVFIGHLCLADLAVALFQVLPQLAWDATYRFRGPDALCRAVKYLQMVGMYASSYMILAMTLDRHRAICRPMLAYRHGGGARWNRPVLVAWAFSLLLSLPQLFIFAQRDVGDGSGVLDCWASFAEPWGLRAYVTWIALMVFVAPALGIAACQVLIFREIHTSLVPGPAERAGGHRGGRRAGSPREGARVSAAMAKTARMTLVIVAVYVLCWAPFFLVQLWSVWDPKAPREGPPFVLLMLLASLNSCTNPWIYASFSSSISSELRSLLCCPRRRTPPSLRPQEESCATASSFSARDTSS

For `CCOc1ccc(C[C@H]2NC(=O)CC3(CCCCC3)SSC[C@H](C(=O)N3CCC[C@H]3C(=O)N[C@@H](CCCNC(=N)N)C(N)=O)NC(=O)[C@H](CC(N)=O)NC(=O)[C@H](C(C)C)NC(=O)[C@H](Cc3ccccc3)NC2=O)cc1` [B, reference compound] ([dY](Et)FVN[dC]PR-NH2; linker N-5 via X1), the Kb [1] was 170 nM.
With `CCOc1ccc(C[C@H]2NC(=O)CC3(CCCCC3)CCC[C@@H](C(=O)N3CCC[C@H]3C(=O)N[C@@H](CCCNC(=N)N)C(N)=O)NC(=O)[C@H](CC(N)=O)NC(=O)[C@H](C(C)C)NC(=O)[C@H](Cc3ccccc3)NC2=O)cc1` [Compound C, [1,6(6,6-cyclopentamethylene-2-amino-L-suberic acid)2-(O--ethylD-tyrosine)-4-valine-9-desglycine]vasopressin] the Ki [2] was 4.3 nM, the Kb [1] was 8.2 nM and the ED300 (hydropenic rat) was 8.9 µg/kg.
With `CCOc1ccc(C[C@H]2NC(=O)CC3(CCCCC3)SSC[C@@H](C(=O)N3CCC[C@H]3C(=O)N[C@@H](CCCNC(=N)N)C(N)=O)NC(=O)[C@H](CC(N)=O)NC(=O)[C@H](C(C)C)NC(=O)[C@H](Cc3ccccc3)NC2=O)cc1` [A, [1(mercapto-β,cyclopentamethylenepropionic acid)2-(O--ethylD-tyrosine)-4-valine-8-arginine-9-desglycine]vasopressin, reference compound] ([dY](Et)FVNCPR-NH2; linker N-5 via X1) the Kb [1] was 12 nM.
For `CCOc1ccc(C[C@H]2NC(=O)CC3(CCCCC3)CCC[C@H](C(=O)N3CCC[C@H]3C(=O)N[C@@H](CCCNC(=N)N)C(N)=O)NC(=O)[C@H](CC(N)=O)NC(=O)[C@H](C(C)C)NC(=O)[C@H](Cc3ccccc3)NC2=O)cc1` [Compound D, [1,6(6,6-cyclopentamethylene-2-amino-D-suberic acid)2-(O--ethy1D-tyrosine)-4-valine-9-desglycine]vasopressin], the Kb [1] was 72 nM.

— US4760052A, “1,6-dicarba-vasopressin compounds” (Smithkline Beckman Corporation, priority 1987, dated 1988)
